Experimental data reported in patent publication US6849658B2, “Biaromatic compounds and pharmaceutical and cosmetic compositions comprising them” (Galderma Research & Development, priority 1997, dated 2005).

Compound | melting point
CC1(C)CCC(C)(C)c2c(C(O)C#Cc3ccc(C(=O)O)cc3)cc(-c3ccccc3)cc21 (stereo not shown) | 250 °C
CC1(C)CCSc2c(CC#Cc3ccc(C(=O)O)c(O)c3)cccc21 [Example 6, 2-Hydroxy-4-[3-(4,4-dimethylthiochroman-8-yl)prop-1-ynyl]benzoic Acid] | 190 to 191 °C
CC1(C)CCSc2cccc(C(O)C#Cc3ccc(C(=O)O)cc3)c21 (stereo not shown) [Example 11, 4-[3-(4,4-Dimethylthiochroman-5-yl)-3-hydroxyprop-1-ynyl]benzoic Acid] | 198 °C
COCOc1c(C(O)C#Cc2ccc(C(=O)O)cc2)cc(C(C)(C)C)cc1C(C)(C)C (stereo not shown) [Example 14, 4-[3-(3,5-Di-tert-butyl-2-(methoxymethoxy)phenyl)-3-hydroxyprop-1-ynyl]benzoic Acid] | 197 °C
CCOC(=O)c1ccc(C#CCc2cc(C(C)(C)C)cc(C(C)(C)C)c2O)cc1 [Example 16, Ethyl 4-[3-(3,5-di-tert-butyl-2-hydroxyphenyl)prop-1-ynyl]benzoate] | 113 to 115 °C
COc1c(C(O)C#Cc2ccc(C(=O)O)cc2)cc(C(C)(C)C)cc1C(C)(C)C (stereo not shown) [Example 18, 4-[3-(3,5-Di-tert-butyl-2-methoxyphenyl)-3-hydroxyprop-1-ynyl]benzoic Acid] | 208 to 209 °C
COc1c(CC#Cc2ccc(C(=O)O)cc2)cc(C(C)(C)C)cc1C(C)(C)C [Example 19, 4-[3-(3,5-Di-tert-butyl-2-methoxyphenyl)prop-1-ynyl]benzoic Acid] | 237 to 239 °C
COc1c(C(O)C#Cc2ccc(C(=O)O)cc2)cc(-c2ccccc2)cc1C(C)(C)C (stereo not shown) [Example 23, 4-[3-(5-tert-Butyl-4-methoxybiphenyl-3-yl)-3-hydroxyprop-1-ynyl]benzoic Acid] | 165 to 167 °C
COc1c(C(C#Cc2ccc(C(=O)O)cc2)OC)cc(C(C)(C)C)cc1C(C)(C)C (stereo not shown) [Example 25, 4-[3-(3,5-Di-tert-butyl-2-methoxyphenyl)-3-methoxyprop-1-ynyl]benzoic Acid] | 162 to 164 °C
COc1c(CC#Cc2ccc(C(=O)O)cc2)cc(-c2ccccc2)cc1C(C)(C)C [Example 31, 4-[3-(5-tert-Butyl-4-methoxybiphenyl-3-yl)prop-1-ynyl]benzoic Acid] | 229 to 231 °C
